Source: PubChem BioAssay (NCI)
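Step 1: Grow cells in 96-well plates. Step 2: Expose to compound for 48 hours at 5 concentrations. Step 3: Interpolate endpoints linearly; if unreached, use highest concentration. The concentration for full growth arrest is given as TGI.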

Experiments:
Assay in all cases: DTP human tumour cell line panel, 48 h
ACHN renal = tested on: ACHN renal
CCRF-CEM leukemia = tested on: CCRF-CEM leukemia
DU-145 prostate = tested on: DU-145 prostate
EKVX NSCLC = tested on: EKVX NSCLC
HCC-2998 colon = tested on: HCC-2998 colon
HOP-62 NSCLC = tested on: HOP-62 NSCLC
HOP-92 NSCLC = tested on: HOP-92 NSCLC
K-562 leukemia = tested on: K-562 leukemia
MOLT-4 leukemia = tested on: MOLT-4 leukemia
NCI-H460 lung = tested on: NCI-H460 lung
OVCAR-3 ovarian = tested on: OVCAR-3 ovarian
OVCAR-5 ovarian = tested on: OVCAR-5 ovarian
SF-295 CNS = tested on: SF-295 CNS
SNB-19 CNS = tested on: SNB-19 CNS
SNB-75 CNS = tested on: SNB-75 CNS
SR leukemia = tested on: SR leukemia
T-47D breast = tested on: T-47D breast
U251 CNS = tested on: U251 CNS
A498 renal = tested on: A498 renal
UO-31 renal = tested on: UO-31 renal

Measured: TGI

Cc1nn(C(=O)c2ccc(Cl)cc2)c2c1C(c1ccccc1[N+](=O)[O-])SC(N)=N2 (configuration not stated)
not listed: A498 renal | UO-31 renal
> 10 µM: all other assays above

Cc1cc(N(CCC#N)CCC#N)ccc1/C(N=Nc1ccc(C(=O)O)cc1)=N\NC(=O)c1cc(Cl)ccc1O
87.7 µM: A498 renal
34.7 µM: SF-295 CNS
55.9 µM: SNB-19 CNS
65.4 µM: HOP-62 NSCLC
63.1 µM: U251 CNS
53.5 µM: SNB-75 CNS
68 µM: UO-31 renal
not listed: HOP-92 NSCLC
> 100 µM: all other assays above

C=CCC1(OC(C)=O)C2OC(=O)C1(O)OCC2O (configuration not stated)
98.9 µM: SNB-75 CNS
not listed: HOP-92 NSCLC
> 100 µM: all other assays above

C/C=C\C(CC(=O)NCCC1CN(S(=O)(=O)c2ccc(C)cc2)c2ccccc21)CC(=O)OC (configuration not stated)
not listed: CCRF-CEM leukemia | SR leukemia
> 100 µM: all other assays above

C[C@@H](c1ccccc1)N1CN(C(=O)OCc2ccccc2)C(C)(C)CC1=O
not listed: A498 renal | UO-31 renal
> 100 µM: all other assays above

CCn1c(SCC(=O)NNC(=S)Nc2ccc([N+](=O)[O-])cc2)nc2ccccc2c1=O
65.8 µM: MOLT-4 leukemia
not listed: HOP-92 NSCLC
> 100 µM: all other assays above

CCN(CC)/C(Sc1ccccc1)=C(\C(Cl)=C(Cl)Cl)[N+](=O)[O-]
32.7 µM: OVCAR-3 ovarian
28.9 µM: UO-31 renal
37.1 µM: SF-295 CNS
34.3 µM: HCC-2998 colon
31.7 µM: ACHN renal
20.9 µM: CCRF-CEM leukemia
31.3 µM: MOLT-4 leukemia
49.9 µM: SNB-19 CNS
42.4 µM: HOP-62 NSCLC
36.3 µM: A498 renal
36.4 µM: HOP-92 NSCLC
57.3 µM: SNB-75 CNS
34.9 µM: DU-145 prostate
34.7 µM: EKVX NSCLC
50.3 µM: NCI-H460 lung
31.9 µM: K-562 leukemia
42 µM: T-47D breast

CN(C)CCNC(=O)c1cc([N+](=O)[O-])cc2c1Oc1ccccc1O2
38.9 µM: SNB-75 CNS
51.1 µM: MOLT-4 leukemia
24.1 µM: HCC-2998 colon
33.2 µM: UO-31 renal
69.6 µM: T-47D breast
not listed: HOP-92 NSCLC | SNB-19 CNS
> 100 µM: all other assays above

O=C1NCc2ccccc2S(=O)(=O)n2cccc21
not listed: HOP-92 NSCLC | K-562 leukemia | A498 renal
> 100 µM: all other assays above

CC(=O)OCC1OC(OC2CC3C(C)(C)C(OC(C)=O)CC[C@]3(C)C3CCC45CC4(CCC5[C@@H](C)C[C@H](O)C(O)C(C)(C)O)[C@]23C)C(O)C(O)C1O (some centres not stated)
not listed: SR leukemia
> 10 µM: all other assays above

S=C1N(/N=C/c2c3ccccc3cc3ccccc23)C(=Nc2ccccc2)C(=Nc2ccccc2)N1c1ccccc1
not listed: ACHN renal | CCRF-CEM leukemia | SNB-75 CNS | A498 renal
> 100 µM: all other assays above

COC(=O)CNS(=O)(=O)c1ccc(-c2c3nc(c(-c4ccc(S(=O)(=O)NCC(=O)OC)cc4)c4ccc([nH]4)c(-c4ccc(S(=O)(=O)NCC(=O)OC)cc4)c4nc(c(-c5ccc(S(=O)(=O)NCC(=O)OC)cc5)c5ccc2[nH]5)C=C4)C=C3)cc1
not listed: HOP-92 NSCLC
> 100 µM: all other assays above
